Key:
Format in all cases: in vivo
[1] = tested on: adult engorged female ticks (Rhipicephalus microplus); test: Rhipicephalus (Boophilus) microplus injection test; conditions: 168 h, egg deposition after 7 days, read-out: activity (efficacy: infertile eggs); for pest or weed control at 4 pg: application rate 4 pg/animal; for pest or weed control at 0.02 mg: application rate 20 μg/animal
Outline: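 Abdominal injection, 1 μL compound/DMSO, n=5 engorged adult females; climate-chamber incubation. Readout d7: fertile egg laying; doubtful eggs held to hatch (~42 d). % efficacy = infertile eggs (100% all infertile).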

[2] = tested on: adult unfed cat fleas (Ctenocephalides felis); test: Ctenocephalides felis oral test; conditions: 48 h, read-out: activity (mortality)
Outline: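 About 20 adult unfed fleas fed through parafilm on cattle blood containing compound (DMSO stock diluted in blood), blood held at 37 °C and fleas at room temperature. Mortality (%) scored after 2 days.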

[3] = tested on: green peach aphid (Myzus persicae); test: Myzus persicae oral test; conditions: 120 h, application rate 4 ppm, after 5 days
Outline: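 Readout: % mortality at day 5, where 100% = all aphids dead and 0% = none dead. Feeding via parafilm membrane over compound in IPL41 medium (33%+15% sugar); mixed-age population. Stock in acetone (1:100 w/w), water-diluted.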

[4] = tested on: Musca domestica strain WHO-N; test: Musca domestica test (MUSCDO surface treatment & contact assay); conditions: 24 hours after contact, read-out: efficacy (mortality); for mortality at 20 mg/m2: surface concentration 20 mg/m^2, exposure 30 minutes; for mortality at 4 mg/m2: surface concentration 4 mg/m^2, exposure 30 minutes
Method: Musca domestica Test (MUSCDO Surface Treatment & Contact Assay)
(§1) Solvent: Aceton+2000 ppm rapeseed oil methyl ester (RME)
(§2) In order to produce a sufficient, active ingredient containing solution it is necessary to solve the test compound in the solvent-mix (acetone at 2 mg/ml/RME 2000 ppm). This solution is pipetted onto a glazed tile and after evaporation of the acetone, adult flies of the species Musca domestica strain WHO—N are placed onto the dried surface. The exposure time is 30 minutes. Mortality in percent (%) is determined 24 hours after contact of the insects to the treated surface. 100% mortality means that all tested insects are dead, whereas 0% means that no insect died.

[5] = tested on: Rhipicephalus microplus larvae (strain Parkhurst, resistant against synthetic pyrethroids); test: Rhipicephalus (Boophilus) microplus in-vitro contact test, larval cattle tick; conditions: after 48 hours, read-out: activity (efficacy: larvae dead or moribund); for pest or weed control at 100 g/ha: application rate 1 pg/cm^2 (=100 g/ha); for pest or weed control at 500 g/ha: application rate 5 pg/cm^2 (=500 g/ha)
Outline: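 Larvae (20-50 per tube) exposed to dry compound film on glass tube walls, 5 μg/cm^2 at 900 ppm, applied from acetone. After 48 h at 27° C./85% RH, tubes tapped and negative geotaxis scored; efficacy as percent dead or moribund larvae.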

[6] = tested on: adult brown dog ticks (Rhipicephalus sanguineus); test: Rhipicephalus sanguineus in-vitro contact test, adult brown dog ticks; conditions: after 48 hours, read-out: activity (efficacy: ticks dead or moribund); for pest or weed control at 5 µg/cm2, 500 g/ha: application rate 5 μg/cm^2 (=500 g/ha); for pest or weed control at 100 g/ha: application rate 1 pg/cm^2 (=100 g/ha)
Outline: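 Read-out: % efficacy as dead or moribund ticks, judged 48 h after exposure by failure to climb away from a 45-50° C heating plate within 5 min. Tubes were coated with acetone solution (900 ppm = 5 μg/cm^2 surface dose) and held 5-10 adults each at room temperature.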

[7] = tested on: larvae of the banded cucumber beetle (Diabrotica balteata); test: Diabrotica balteata spray test; conditions: 168 h, after 7 days, read-out: activity (efficacy: seedlings grown); for pest or weed control at 100 g/ha: application rate 100 g/ha (=32 pg/well); for pest or weed control at 500 g/ha: application rate 500 g/ha (=160 pg/well)
Outline: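 Read-out is % efficacy at day 7, 0% meaning no seedling growth and 100% growth equal to uninfested untreated controls. Test solutions (acetone/DMF concentrate diluted with water carrying 1000 ppm emulsifier) were sprayed onto 1-day-germinated wheat seeds, 5 per well, before infestation with 10-20 larvae.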

[8] = tested on: fall armyworm larvae (Spodoptera frugiperda); test: Spodoptera frugiperda spray test; conditions: 168 h, read-out: activity (mortality)
Outline: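 Larvae of fall armyworm placed on dried maize leaf sections previously sprayed with emulsified compound (acetone/DMF solvent, water with 1000 ppm emulsifier). Percent of caterpillars killed recorded on day 7, 0–100% scale.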

[9] = tested on: Aedes aegypti strain MONHEIM; test: Aedes aegypti test (AEDSAE surface treatment & contact assay); conditions: 24 hours after contact, read-out: efficacy (mortality); for mortality at 4 mg/m2: surface concentration 4 mg/m^2, exposure 30 minutes; for mortality at 20 mg/m2: surface concentration 20 mg/m^2, exposure 30 minutes
Outline: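 Percent mortality was read 24 h after adult MONHEIM mosquitoes were held for 30 min on a tile treated with compound. Compound applied from acetone solution (2 mg/ml) containing 2000 ppm rapeseed oil methyl ester, after evaporation.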

[10] = tested on: green peach aphid (Myzus persicae); test: Myzus persicae spray test; conditions: 120 h, after 5 days; for mortality at 100 g/ha: application rate 100 g/ha; for mortality at 500 g/ha: application rate 500 g/ha
Method: Myzus persicae—Spray Test
Solvent: 78.0 parts by weight acetone • 1.5 parts by weight dimethylformamide
Emulsifier: alkylarylpolyglycol ether
To produce a suitable preparation of active compound, 1 part by weight of active compound is mixed with the stated amount of solvents and is diluted with water, containing an emulsifier concentration of 1000 ppm, to the desired concentration. Further test concentrations are prepared by dilution with emulsifier containing water.
Chinese cabbage (Brassica pekinensis) leaf disks infected with all instars of the green peach aphid (Myzus persicae), are sprayed with a preparation of the active ingredient of the desired concentration.
After 5 days mortality in % is determined. 100% means all aphids have been killed and 0% means none of the aphids have been killed.

[11] = tested on: larvae of the southern green stink bug (Nezara viridula); test: Nezara viridula spray test; conditions: 96 h, after 4 days; for mortality at 100 g/ha: application rate 100 g/ha; for mortality at 500 g/ha: application rate 500 g/ha
Outline: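 Larva-infested barley (Hordeum vulgare) plants received a spray of test solution prepared from an acetone/DMF concentrate diluted in emulsifier-containing water (1000 ppm). Percent kill read 4 days later; 0% means no stink bugs dead.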

[12] = tested on: adult cat fleas (Ctenocephalides felis); test: Ctenocephalides felis in-vitro contact test, adult cat flea; conditions: application rate 5 μg/cm^2 (=500 g/ha), after 48 hours, read-out: activity (efficacy: fleas dead or moribund)
Method: Ctenocephalides felis—In-Vitro Contact Tests Adult Cat Flea
9 mg compound is solved in 1 mL acetone and diluted with acetone to the desired concentration. 250 μL of the test solution is filled in 25 mL glass test tubes and homogeneously distributed on the inner walls by rotation and tilting on a shaking device (2 h at 30 rpm). With a compound concentration of 900 ppm, an inner surface of 44.7 cm^2 and a homogeneous distribution, a dose of […] is achieved.
After the solvent has evaporated, each test tube is filled with 5-10 adult cat fleas (Ctenocephalides felis), closed with a perforated lid and incubated in a lying position at room temperature and relative humidity. After 48 hours efficacy is determined. The fleas are patted on the ground of the tubes and are incubated on a heating plate at 45-50° C. for at most 5 minutes. Immotile or uncoordinated moving fleas, which are not able to escape the heat by climbing upwards, are marked as dead or moribund.
An efficacy of 100% means all fleas are dead or moribund; 0% means no fleas are dead or moribund.

[13] = tested on: Culex quinquefasciatus strain P00; test: Culex quinquefasciatus test (CULXFA surface treatment & contact assay); conditions: 24 hours after contact, read-out: efficacy (mortality)
Method: Culex quinquefasciatus Test (CULXFA Surface Treatment & Contact Assay)
as §1
as §2, with “2 000” for “2000”, “mosquitoes” for “flies”, “Culex quinquefasciatus” for “Musca domestica”, “P00” for “WHO—N”

Structure (SMILES) | pest or weed control at 4 pg [1] [%] | pest or weed control at 0.02 mg [1] [%] | mortality at 100 ppm [2] [%] | mortality at 4 ppm [3] [%] | mortality at 20 mg/m2 [4] [%] | pest or weed control at 100 g/ha [5] [%] | pest or weed control at 500 g/ha [5] [%] | pest or weed control at 5 µg/cm2, 500 g/ha [6] [%] | pest or weed control at 100 g/ha [7] [%] | mortality at 100 g/ha [8] [%] | mortality at 4 mg/m2 [4] [%] | pest or weed control at 100 g/ha [6] [%] | mortality at 4 mg/m2 [9] [%] | mortality at 20 mg/m2 [9] [%] | mortality at 100 g/ha [10] [%] | mortality at 100 g/ha [11] [%] | mortality at 500 g/ha [11] [%] | pest or weed control at 5 µg/cm2 [12] [%] | pest or weed control at 500 g/ha [7] [%] | mortality at 500 g/ha [8] [%] | further results
C[C@H](NC(=O)c1cc(Cl)cc(S(=O)(=O)CC(F)(F)F)c1)c1nc(C2CC2)nn1-c1ccc(C#N)cn1 [I-13] | 100 | 100 | 90 | 90 | 80 to 100 |  |  |  |  |  |  |  |  |  |  |  |  |  |  |  | 
CCS(=O)(=O)c1cc(C(=O)N[C@@H](C)c2nc(C3CC3)nn2-c2ccc(C#N)cn2)cc(C(F)(F)F)c1 [I-19] | 100 | 100 | 90 | 100 | 80 to 100 | 100 | 100 | 80 | 80 | 100 | 80 to 100 |  |  |  |  |  |  |  |  |  | 
C[C@H](NC(=O)c1cc(Cl)cc(C2(C#N)CC2)c1)c1nc(C2CC2)nn1-c1ccc(C#N)cn1 [I-36] | 100 |  | 100 |  | 80 to 100 | 100 | 100 | 80 | 100 | 100 | 80 to 100 | 100 | 80 to 100 | 80 to 100 |  |  |  |  |  |  | 
COc1nc([C@H](C)NC(=O)c2cc(OC(F)(F)F)cc(S(C)(=O)=O)c2)n(-c2ccc(Cl)cn2)n1 [I-80] |  |  |  | 100 | 80 to 100 |  |  |  | 100 | 100 | 80 to 100 |  |  |  | 90 | 100 | 100 |  |  |  | 
Cc1nc([C@H](C)NC(=O)c2cc(C)n(C)n2)n(-c2ccc(C#N)cn2)n1 [II-6] | 100 | 100 | 100 |  |  |  |  | 100 |  |  |  | 80 | 80 to 100 | 80 to 100 | 90 |  |  | 100 | 100 | 100 | mortality at 500 g/ha [10]: 90%; mortality at 4 mg/m2 ([13]; surface concentration 4 mg/m^2, exposure 30 minutes): 80 to 100%; mortality at 20 mg/m2 ([13]; surface concentration 20 mg/m^2, exposure 30 minutes): 80 to 100%
C[C@H](NC(=O)c1cc(C#N)cc(S(C)(=O)=O)c1)c1ncnn1-c1ccc(C#N)cn1 [II-9] | 100 | 100 | 100 | 100 |  | 80 | 80 |  | 100 |  |  |  | 80 to 100 |  | 90 | 100 | 100 | 90 | 100 | 100 | mortality at 500 g/ha [10]: 90%
Cc1nc([C@H](C)NC(=O)c2cc(Cl)cc(S(=O)(=O)C(F)(F)F)c2)n(-c2ccc(Cl)cn2)n1 [II-14] | 80 | 100 |  |  | 80 to 100 |  | 80 |  | 100 | 100 |  |  |  |  |  |  | 100 | 90 | 100 | 100 | 
C[C@H](NC(=O)c1cc(Br)cc(S(C)(=O)=O)c1)c1ncnn1-c1ccc(C#N)cn1 [II-41] | 100 | 100 | 100 | 100 |  | 100 | 100 | 100 | 100 | 100 |  | 100 |  |  | 100 | 100 |  | 100 |  |  | 
C[C@H](NC(=O)c1cc(Cl)cc(C2(C#N)CC2)c1)c1ncnn1-c1ncc(Cl)cn1 [II-55] | 100 |  | 100 | 100 |  | 100 | 100 | 100 | 100 | 100 |  | 100 |  |  | 100 | 100 |  | 100 |  |  | 
C[C@H](NC(=O)c1cc(C2CC2)cc(C2CC2)c1)c1ncnn1-c1ccc(C#N)cn1 [II-57] | 100 |  | 100 | 100 |  | 100 | 100 | 100 | 100 | 100 | 80 to 100 | 80 | 80 to 100 | 80 to 100 |  |  |  |  |  |  | 
